Drawing on ChEMBL document CHEMBL1138924, “Crystal structure, spectroscopic, and biological study of the copper(II) complex with third-generation quinolone antibiotic sparfloxacin” (2006), this text covers MIC for one compound.

What all share (assay type): functional
One assay deals with Staphylococcus aureus. The assay can be described thus: Antimicrobial activity against Staphylococcus aureus.
Another assay relates to Escherichia coli. The assay can be described thus: Antimicrobial activity against Escherichia coli.
The next assay concerns Pseudomonas aeruginosa. Kind of assay: Antimicrobial activity against Pseudomonas aeruginosa.

Converted amounts (≈) assume the structure as drawn.

As usually defined, the MIC is the lowest concentration found to suppress growth. Read a low MIC as greater potency. Regarding `C[C@@H]1CN(c2c(F)c(N)c3c(=O)c(C(=O)O)cn(C4CC4)c3c2F)C[C@H](C)N1` [SPARFLOXACIN], the minimum inhibitory concentration (MIC) in the assay on Staphylococcus aureus was determined as 0.5 µg/mL (≈ 1.27 µM); with Escherichia coli, 8 µg/mL (≈ 20.4 µM); against Pseudomonas aeruginosa it was 0.25 µg/mL (≈ 0.637 µM).
